# Columns and labels:
# [1] = molecular target: T1, PDE4C (Homo sapiens, UniProt Q08493); assay: Recombinant PDE activity, scintillation proximity assay: PDE4C; format: biochemical; settings: substrate [3H]cAMP, means from n independent experiments, read-out: IC50 PDE4C2
# T1 construct: made in house; host or cells: SF9 insect cells (baculovirus, Bac-To-Bac, pFastbac)
# Method: For the preparation of human recombinant PDEs of interest, the Bac-To-Bac baculoviral expression system from Invitrogen (Carlsbad, CA, United States) was used according to the instruction manual. […] The plasmids were transformed into DH10Bac bacteria, SF9 insect cells were transfected with the bacmid DNA, and the resulting baculoviruses were stored and used for further rounds of infections. For protein production, SF9 cells were infected until a cytopathic effect was visible (after about 72 h), the SF9 cells were harvested and broken up by 3 freeze/thaw cycles, and by shearing 10 times through a 0.1 mm cannula using a syringe. […] The Phosphodiesterase Scintillation Proximity Assays (TRKQ7090 for [^3H]cAMP, GE Healthcare Europe GmbH, Chalfont St Giles, United Kingdom, and TRKQ7100 for [^3H]cGMP, Perkin Elmer, Waltham, MA, United States) were performed essentially according to the instruction manual. […] Assay solutions containing recombinant baculoviral-expressed PDE (to give an activity of 5.000–20.000 cpm corresponding to 5–20% of total activity added), 50 mmol/L Tris/HCl pH 7.5, 8.3 mmol/L MgCl2, 1.7 mmol/L EGTA, and 10 µL radiolabeled substrate (0.05 µCi in H2O) were incubated for 1 h at 30°C (final volume 100 μL).
# [2] = molecular target: T2, PDE2A (Homo sapiens, UniProt O00408); assay: PDE2A inhibition screen at Eurofins Cerep; format: biochemical; settings: screened at Eurofins Cerep
# T2 construct: Eurofins Cerep
# [3] = tested on: PDE6; assay: PDE6 inhibition screen at Eurofins Cerep; format: biochemical, bovine; settings: screened at Eurofins Cerep
# [4] = tested on: LPS-induced TNF-α release; assay: LPS-induced TNF-α release in human PBMCs; format: cell-based; settings: 100 ng/mL LPS for 4 h
# Method: (§1) Blood was donated by internal donors at the Center for Occupational Health at Boehringer Ingelheim in Biberach an der Riss, Germany; the donors provided signed informed consent that allows use for scientific purposes. All research was performed in accordance with the principles stated in the Declaration of Helsinki. Ethical approval was provided by the Federal State Medical Association of Baden-Württemberg, reference no. F-2016–121. For preparation of peripheral blood mononuclear cells (PBMCs), 200 mL freshly drawn human blood from healthy donors was mixed with 50 mL acid-citrate-dextrose solution (38 mmol/L citric acid, 75 mmol/L tri-sodium citrate and 121 mmol/L glucose) and 50 mL Hanks buffered saline solution (Thermo Fisher Scientific, Carlsbad, CA, United States), overlaid on Ficoll and centrifuged for 30 min at 300 x g. PBMCs were diluted in RPMI-1640 medium (Thermo Fisher Scientific) containing 6% (v/v) autologous plasma to a concentration of 5 × 10^6 cells/mL. […] Supernatants were taken and cytokines measured by enzyme-linked immunosorbent assay (ELISA; Becton Dickinson, Franklin Lakes, NJ, United States).
# [5] = tested on: phytohemagglutinin P-induced IL-2 release; assay: Phytohemagglutinin P-induced IL-2 release in human PBMCs; format: cell-based; settings: 10 µg/mL PHA-P for 20 h
# Method: as §1
# [6] = tested on: LPS-stimulated IL-6 release; assay: LPS-stimulated IL-6 release in human whole blood; format: cell-based; settings: high concentrations
# Method: Heparinized whole blood was collected from the Aorta abdominalis of WI (Han) male rats (Charles River Laboratories, Sulzfeld, Germany) and from healthy male human donors, and treated with 1 µL (rat) or 2.5 µL (human) of BI 1015550 or vehicle [final DMSO concentration 0.5% (v/v)]. Final assay volumes were 200 μL (rat) and 500 μL (human). After incubation for 30 min at 37°C, 95% humidity, and 5% CO2, cultures were treated with LPS [final concentration 10 µg/mL (rat), 0.1 µg/mL (human)] or saline. After 7 h, plates were centrifuged at 3.200 × g at 4°C for 10 min and plasma was used for cytokine measurement. Meso Scale Discovery (MSD) (Rockville, MD, United States) rat and human pro-inflammatory panels were used for detection of TNF-α and IL-6 in rat plasma [diluted 1:2 (v/v)]) and human plasma [negative control undiluted, other samples diluted 1:200 (v/v)] according to the manufacturer’s instructions.
# [7] = tested on: IPF-LF cells; assay: bFGF plus IL-1β-induced proliferation of IPF lung fibroblasts (bromodeoxyuridine assay); format: cell-based
# Method: Fibroblasts from donors with IPF (IPF-LF) (Asterand, Detroit, MI, United States) were grown in fibroblast basal medium (CC-3131, Lonza Walkersville, Inc., Walkersville, MD, United States) supplemented with FGM-2 SingleQuot Kit Supplements and Growth Factors (CC-4126, Lonza). Cells were grown in a humidified incubator at 37°C and 5% CO2. All assays were performed at passage 7 or 8. For assay set-up, cells were seeded in fibroblast growth medium plus supplements in assay-relevant densities. For TGF-β-stimulated assays, cells were seeded at 4,500 cells per well in 96-well plates. Proliferation assays were performed in 96-well plates at an initial seeding cell density on day 0 of 2,000 cells per well. After 24-h, the cell culture medium was changed to starvation medium (fibroblast basal medium without supplements). After a 24-h starvation period, cells were pre-incubated for 30 min with different concentrations of BI 1015550 plus/minus different concentrations of nintedanib and/or 1 nmol/L PGE2 and stimulated with the assay-relevant stimulus for the indicated time in the presence of the compound.
# IPF-LF cells were stimulated with bFGF (20 ng/mL) plus IL-1β (30 pg/mL). After 72 h of stimulation, 10-times concentrated bromodeoxyuridine was added and the cells were incubated for another 18 h (final concentration bromodeoxyuridine 10 μmol/L). Cell proliferation was assessed by bromodeoxyuridine assay (Roche, Mannheim, Germany) according to the instruction manual.
# T2 sequence (O00408 whole entry): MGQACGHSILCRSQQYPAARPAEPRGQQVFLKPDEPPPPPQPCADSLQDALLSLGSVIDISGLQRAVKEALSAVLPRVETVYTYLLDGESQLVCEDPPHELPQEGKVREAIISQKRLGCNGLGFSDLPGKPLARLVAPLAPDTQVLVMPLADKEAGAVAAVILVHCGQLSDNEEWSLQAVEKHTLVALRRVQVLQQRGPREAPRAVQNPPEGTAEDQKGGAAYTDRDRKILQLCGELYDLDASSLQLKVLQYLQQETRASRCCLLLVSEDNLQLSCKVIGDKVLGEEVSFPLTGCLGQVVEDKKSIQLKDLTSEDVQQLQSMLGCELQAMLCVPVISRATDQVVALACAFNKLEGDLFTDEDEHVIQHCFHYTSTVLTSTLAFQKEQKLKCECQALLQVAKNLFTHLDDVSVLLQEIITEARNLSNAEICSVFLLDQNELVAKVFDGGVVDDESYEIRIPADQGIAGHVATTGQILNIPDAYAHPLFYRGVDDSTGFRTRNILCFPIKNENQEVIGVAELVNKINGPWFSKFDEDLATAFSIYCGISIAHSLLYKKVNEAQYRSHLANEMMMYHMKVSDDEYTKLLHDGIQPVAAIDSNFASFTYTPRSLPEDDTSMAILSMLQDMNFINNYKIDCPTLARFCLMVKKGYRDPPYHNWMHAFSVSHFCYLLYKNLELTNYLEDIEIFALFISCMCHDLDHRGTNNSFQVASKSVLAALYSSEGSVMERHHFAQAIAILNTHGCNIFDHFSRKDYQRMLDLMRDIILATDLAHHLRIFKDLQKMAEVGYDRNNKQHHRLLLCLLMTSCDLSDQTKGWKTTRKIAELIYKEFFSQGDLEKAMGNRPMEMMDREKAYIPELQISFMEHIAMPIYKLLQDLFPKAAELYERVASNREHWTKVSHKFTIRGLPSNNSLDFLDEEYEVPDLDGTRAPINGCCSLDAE
# T1 sequence (Q08493 107-712): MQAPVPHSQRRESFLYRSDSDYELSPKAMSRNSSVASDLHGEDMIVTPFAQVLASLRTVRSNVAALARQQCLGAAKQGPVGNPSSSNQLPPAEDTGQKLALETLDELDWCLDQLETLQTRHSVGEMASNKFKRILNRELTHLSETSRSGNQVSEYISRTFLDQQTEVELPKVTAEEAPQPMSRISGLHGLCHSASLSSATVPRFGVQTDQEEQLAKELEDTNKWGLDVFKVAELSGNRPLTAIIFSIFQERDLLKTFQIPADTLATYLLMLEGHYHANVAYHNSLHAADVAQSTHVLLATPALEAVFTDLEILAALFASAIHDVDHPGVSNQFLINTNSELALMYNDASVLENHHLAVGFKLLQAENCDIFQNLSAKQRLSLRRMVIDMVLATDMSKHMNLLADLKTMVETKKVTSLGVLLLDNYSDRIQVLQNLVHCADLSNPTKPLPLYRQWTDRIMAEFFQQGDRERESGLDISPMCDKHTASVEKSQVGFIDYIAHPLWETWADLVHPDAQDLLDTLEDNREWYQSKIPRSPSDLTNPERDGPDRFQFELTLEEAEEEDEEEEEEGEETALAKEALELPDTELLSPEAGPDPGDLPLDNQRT
smiles,measurement,setting,value
[O-][S+]1CCc2nc(N3CCC(c4ncc(Cl)cn4)CC3)nc(NC3(CO)CCC3)c21 (stereo not drawn) [BI 1015550],IC50,[1],8700 nM
same,Inhibition of human PDE2A,[2],did not inhibit
same,Inhibition of bovine PDE6,[3],did not inhibit
same,IC50,[4],35 nM
same,IC50,[5],9 nM
same,IL-6 increase,[6],did not result in an IL-6 increase
same,Maximum inhibition of IL-6 release,[6],30–40%
same,IC50,"[7]; IPF-LF, alone, read-out: IC50 bFGF plus IL-1β-induced cell proliferation",255 nM
same,"Additional inhibitory effects in combination, proliferation assay","[7]; combination with pirfenidone (100 µmol/L), data not shown",did not yield any additional inhibitory effects
